From PubChem BioAssay AID248 (DTP/NCI, 2004)
Where “and” joins values, the source holds several entries; their conditions need not be identical. Equal values may be shown once. Toxic doses and inconclusive results are not listed. No stated cut-off is given here; in the data, active means T/C of 150% or more; inactive means T/C below 125%.

System: L1210 leukemia ip in BDF1 mice, survival T/C
Assay: NCI In Vivo Anticancer Drug Screen. Data for tumor model L1210 Leukemia (intraperitoneal) in B6D2F1 (BDF1) mice
Conditions: higher = longer survival
Procedure, shortened: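 In this screen, tumor-bearing mice given compound are compared to those given vehicle, and their survival values are reported as a treated-to-control quotient.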

[1] = endpoint: mean survival time, dose: 100.0 mg/kg/injection, schedule: Q04DX003 (ip), vehicle: saline with Tween-80
[2] = endpoint: mean survival time, dose: 200.0 mg/kg/injection, schedule: Q04DX003 (ip), vehicle: saline with Tween-80
[3] = endpoint: mean survival time, dose: 400.0 mg/kg/injection, schedule: Q04DX003 (ip), vehicle: saline with Tween-80
[4] = endpoint: mean survival time, dose: 25.0 mg/kg/injection, schedule: Q01DX009 (ip), vehicle: Klucel (hydroxypropylcellulose) (HPC)
[5] = endpoint: mean survival time, dose: 50.0 mg/kg/injection, schedule: Q01DX009 (ip), vehicle: Klucel (hydroxypropylcellulose) (HPC)
[6] = endpoint: mean survival time, dose: 100.0 mg/kg/injection, schedule: Q01DX009 (ip), vehicle: Klucel (hydroxypropylcellulose) (HPC)
[7] = endpoint: mean survival time, dose: 100.0 mg/kg/injection, schedule: Q04DX003 (ip), vehicle: Klucel (hydroxypropylcellulose) (HPC)

Measured: T/C

CCC[CH2][Sn]([CH2]CCC)([CH2]CCC)[S]C(=S)NCCNC(=S)[S][Sn]([CH2]CCC)([CH2]CCC)[CH2]CCC
inactive: endpoint: mean survival time, dose: 0.5 mg/kg/injection, schedule: Q01DX015 (ip), vehicle: carboxymethylcellulose (CMC) 101 % of control | endpoint: mean survival time, dose: 1.0 mg/kg/injection, schedule: Q01DX015 (ip), vehicle: carboxymethylcellulose (CMC) 103 % of control | endpoint: mean survival time, dose: 2.5 mg/kg/injection, schedule: Q01DX001 (ip), vehicle: saline 108 % of control | endpoint: mean survival time, dose: 2.5 mg/kg/injection, schedule: Q01DX015 (ip), vehicle: carboxymethylcellulose (CMC) 110 % of control | endpoint: mean survival time, dose: 5.0 mg/kg/injection, schedule: Q01DX001 (ip), vehicle: saline 108 % of control | endpoint: mean survival time, dose: 5.0 mg/kg/injection, schedule: Q01DX015 (ip), vehicle: carboxymethylcellulose (CMC) 103 % of control | endpoint: mean survival time, dose: 10.0 mg/kg/injection, schedule: Q01DX001 (ip), vehicle: saline 101 % of control | endpoint: mean survival time, dose: 10.0 mg/kg/injection, schedule: Q01DX015 (ip), vehicle: carboxymethylcellulose (CMC) 113 % of control | endpoint: mean survival time, dose: 20.0 mg/kg/injection, schedule: Q01DX015 (ip), vehicle: carboxymethylcellulose (CMC) 101 % of control | endpoint: mean survival time, dose: 30.0 micrograms/kg/injection, schedule: Q01DX015 (ip), vehicle: carboxymethylcellulose (CMC) 106 % of control | endpoint: mean survival time, dose: 60.0 micrograms/kg/injection, schedule: Q01DX015 (ip), vehicle: carboxymethylcellulose (CMC) 110 % of control | endpoint: mean survival time, dose: 120.0 micrograms/kg/injection, schedule: Q01DX015 (ip), vehicle: carboxymethylcellulose (CMC) 102 % of control | endpoint: mean survival time, dose: 240.0 micrograms/kg/injection, schedule: Q01DX015 (ip), vehicle: carboxymethylcellulose (CMC) 102 % of control

O=S1(=O)c2ccc(cc2)N=CC=Nc2ccc1cc2
inactive: [1] 92 % of control | [2] 90 % of control | [3] 89 % of control

c1ccc(C2OCC3OC(c4ccccc4)OC(C4SCCS4)C3O2)cc1 (configuration not stated)
inactive: endpoint: mean survival time, dose: 100.0 mg/kg/injection, schedule: Q01DX001 (ip), vehicle: gum acacia 92 % of control | endpoint: mean survival time, dose: 200.0 mg/kg/injection, schedule: Q01DX001 (ip), vehicle: gum acacia 93 % of control | endpoint: mean survival time, dose: 400.0 mg/kg/injection, schedule: Q01DX001 (ip), vehicle: gum acacia 93 % of control

NC(N)=Nc1ncnc2nncnc12
inactive: endpoint: mean survival time, dose: 9.5 mg/kg/injection, schedule: Q01DX001 (ip), vehicle: other 102 % of control | endpoint: mean survival time, dose: 19.0 mg/kg/injection, schedule: Q01DX001 (ip), vehicle: other 102 % of control | endpoint: mean survival time, dose: 38.0 mg/kg/injection, schedule: Q01DX001 (ip), vehicle: other 102 % of control

CN1CCN(Cn2cnc3c2c(=O)n(C)c(=O)n3C)CC1
inactive: endpoint: mean survival time, dose: 75.0 mg/kg/injection, schedule: Q01DX001 (ip), vehicle: saline 92 % of control | endpoint: mean survival time, dose: 150.0 mg/kg/injection, schedule: Q01DX001 (ip), vehicle: saline 100 % of control | endpoint: mean survival time, dose: 300.0 mg/kg/injection, schedule: Q01DX001 (ip), vehicle: saline 122 % of control

CC(=O)OC1CCC2(C)C(CCC3C2CCC2(C)C(C(C)C(=O)O)CCC32)C1 (configuration not stated)
inactive: endpoint: mean survival time, dose: 100.0 mg/kg/injection, schedule: Q04DX002 (ip), vehicle: Klucel (hydroxypropylcellulose) (HPC) 100 % of control | [1] 104 % of control | endpoint: mean survival time, dose: 200.0 mg/kg/injection, schedule: Q04DX002 (ip), vehicle: Klucel (hydroxypropylcellulose) (HPC) 97 % of control | [2] 98 % of control | endpoint: mean survival time, dose: 400.0 mg/kg/injection, schedule: Q04DX002 (ip), vehicle: Klucel (hydroxypropylcellulose) (HPC) 94 % of control | [3] 93 % of control

CCNCCNc1ccc(CO)c2sc3cc(Cl)ccc3c(=O)c12
inactive: [4] 99 % of control | [5] 100 % of control

CC1=CC(=O)C(CO)=CC1=O
inactive: endpoint: mean survival time, dose: 0.09 mg/kg/injection, schedule: Q01DX009 (ip), vehicle: saline with Tween-80 93 % of control | endpoint: mean survival time, dose: 0.18 mg/kg/injection, schedule: Q01DX009 (ip), vehicle: saline with Tween-80 97 % of control | endpoint: mean survival time, dose: 0.37 mg/kg/injection, schedule: Q01DX009 (ip), vehicle: saline with Tween-80 104 % of control | endpoint: mean survival time, dose: 3.0 mg/kg/injection, schedule: Q01DX009 (ip), vehicle: other 105 % of control | endpoint: mean survival time, dose: 3.0 mg/kg/injection, schedule: Q04DX002 (ip), vehicle: other 107 % of control | endpoint: mean survival time, dose: 6.0 mg/kg/injection, schedule: Q01DX009 (ip), vehicle: other 91 % of control | endpoint: mean survival time, dose: 6.0 mg/kg/injection, schedule: Q04DX002 (ip), vehicle: other 96 % of control | endpoint: mean survival time, dose: 12.5 mg/kg/injection, schedule: Q04DX002 (ip), vehicle: other 86 % of control

CC(=O)Oc1cc(-c2ccc3c(c2)C2(C)c4cc(OC(C)=O)c5ccccc5c4OC2(C)N3C)c(OC(C)=O)c2ccccc12 (configuration not stated)
inactive: endpoint: mean survival time, dose: 100.0 mg/kg/injection, schedule: Q01DX001 (ip), vehicle: other 92 % of control | endpoint: mean survival time, dose: 200.0 mg/kg/injection, schedule: Q01DX001 (ip), vehicle: other 88 % of control | endpoint: mean survival time, dose: 400.0 mg/kg/injection, schedule: Q01DX001 (ip), vehicle: other 92 % of control

O=C(O)/C=C/C(=O)NCc1ccco1
inactive: endpoint: mean survival time, dose: 100.0 mg/kg/injection, schedule: Q01DX009 (ip), vehicle: saline with Tween-80 98 % of control | endpoint: mean survival time, dose: 200.0 mg/kg/injection, schedule: Q01DX009 (ip), vehicle: saline with Tween-80 96 % of control | endpoint: mean survival time, dose: 400.0 mg/kg/injection, schedule: Q01DX009 (ip), vehicle: saline with Tween-80 101 % of control

C[n+]1cccc(SC2CCC3CC4CC3C2C4)c1 (configuration not stated)
inactive: endpoint: mean survival time, dose: 50.0 mg/kg/injection, schedule: Q01DX009 (ip), vehicle: saline with Tween-80 91 % of control

C=C(C)C(=NC)Nc1ccc(Cl)c(Cl)c1
inactive: endpoint: mean survival time, dose: 222.0 mg/kg/injection, schedule: Q01DX Z (ip), vehicle: methylcellulose (MC) 98 % of control | endpoint: mean survival time, dose: 333.0 mg/kg/injection, schedule: Q01DX Z (ip), vehicle: methylcellulose (MC) 91 % of control | endpoint: mean survival time, dose: 500.0 mg/kg/injection, schedule: Q01DX Z (ip), vehicle: methylcellulose (MC) 93 % of control

CCCCN1C(=O)CC(C23C(=O)N(CCCC)C(=O)C2CCc2ncccc23)C1=O (configuration not stated)
inactive: [6] 87 % of control | [7] 94 % of control | endpoint: mean survival time, dose: 200.0 mg/kg/injection, schedule: Q01DX009 (ip), vehicle: Klucel (hydroxypropylcellulose) (HPC) 89 % of control | endpoint: mean survival time, dose: 200.0 mg/kg/injection, schedule: Q04DX003 (ip), vehicle: Klucel (hydroxypropylcellulose) (HPC) 99 % of control | endpoint: mean survival time, dose: 400.0 mg/kg/injection, schedule: Q01DX009 (ip), vehicle: Klucel (hydroxypropylcellulose) (HPC) 87 % of control | endpoint: mean survival time, dose: 400.0 mg/kg/injection, schedule: Q04DX003 (ip), vehicle: Klucel (hydroxypropylcellulose) (HPC) 90 % of control

CC(C)(C)OC(=O)C1=CNCCC1
inactive: endpoint: mean survival time, dose: 100.0 mg/kg/injection, schedule: Q01DX001 (ip), vehicle: saline 102 % of control | endpoint: mean survival time, dose: 100.0 mg/kg/injection, schedule: Q04DX003 (ip), vehicle: saline 106 % of control | endpoint: mean survival time, dose: 200.0 mg/kg/injection, schedule: Q01DX001 (ip), vehicle: saline 94 % of control | endpoint: mean survival time, dose: 200.0 mg/kg/injection, schedule: Q04DX003 (ip), vehicle: saline 98 % of control | endpoint: mean survival time, dose: 400.0 mg/kg/injection, schedule: Q01DX001 (ip), vehicle: saline 105 % of control

OC(CCN1CCCC1)(c1ccccc1)C1CCCCC1 (configuration not stated)
inactive: endpoint: mean survival time, dose: 6.25 mg/kg/injection, schedule: Q01DX009 (ip), vehicle: Klucel (hydroxypropylcellulose) (HPC) 104 % of control and 108 % of control | endpoint: mean survival time, dose: 12.5 mg/kg/injection, schedule: Q01DX009 (ip), vehicle: Klucel (hydroxypropylcellulose) (HPC) 95 % of control and 97 % of control and 102 % of control | [4] 103 % of control and 105 % of control | endpoint: mean survival time, dose: 25.0 mg/kg/injection, schedule: Q04DX003 (ip), vehicle: Klucel (hydroxypropylcellulose) (HPC) 111 % of control | [5] 100 % of control and 106 % of control (2×) | endpoint: mean survival time, dose: 50.0 mg/kg/injection, schedule: Q04DX003 (ip), vehicle: Klucel (hydroxypropylcellulose) (HPC) 101 % of control | [6] 103 % of control and 91 % of control | [7] 92 % of control | endpoint: median survival time, dose: 12.5 mg/kg/injection, schedule: Q01DX009 (ip), vehicle: Klucel (hydroxypropylcellulose) (HPC) 96 % of control | endpoint: median survival time, dose: 25.0 mg/kg/injection, schedule: Q01DX009 (ip), vehicle: Klucel (hydroxypropylcellulose) (HPC) 106 % of control | endpoint: median survival time, dose: 50.0 mg/kg/injection, schedule: Q01DX009 (ip), vehicle: Klucel (hydroxypropylcellulose) (HPC) 103 % of control | endpoint: median survival time, dose: 100.0 mg/kg/injection, schedule: Q01DX009 (ip), vehicle: Klucel (hydroxypropylcellulose) (HPC) 102 % of control

Cc1nccc2c1[nH]c1cc(N)ccc12.[Cl][Sn][Cl]
inactive: endpoint: mean survival time, dose: 5.0 mg/kg/injection, schedule: Q04DX003 (ip), vehicle: saline with Tween-80 102 % of control | endpoint: mean survival time, dose: 10.0 mg/kg/injection, schedule: Q04DX003 (ip), vehicle: saline with Tween-80 94 % of control | endpoint: mean survival time, dose: 20.0 mg/kg/injection, schedule: Q04DX003 (ip), vehicle: saline with Tween-80 96 % of control
